Data on 2 compounds can be found in patent US6726908B2, “Pharmaceutical formulation” (SmithKline Beecham p.l.c., priority 1995, dated 2004).

≈ marks a conversion by molar mass, not a printed value. Like-named read-outs stand apart in the source and are kept apart here.

For orientation: MIC means the lowest concentration found to suppress growth.

Holding throughout (format): cell-based, Streptococcus pneumoniae
One assay concerns S Pneumoniae N1387. As to the kind of experiment: MIC against resistant S Pneumoniae strain N1387.
The next assay has as its system S Pneumoniae 14319. As to the kind of experiment: MIC against resistant S Pneumoniae strain 14319.
The subject of the next assay is S Pneumoniae 410101. Nature of the assay: MIC against resistant S Pneumoniae strain 410101.
The mark [1] stands for this setting: Streptococcus pneumoniae, read-out: MIC.

On to `CC1(C)S[C@@H]2[C@H](NC(=O)Cc3ccccc3)C(=O)N2[C@H]1C(=O)O` [Penicillin G], for which the MIC worked out at 2 µg/mL (≈ 5.98 µM) against S Pneumoniae N1387, 8 µg/mL (≈ 23.9 µM) in the assay on S Pneumoniae 14319 and 4 µg/mL (≈ 12 µM) in the assay on S Pneumoniae 410101.
Take `CC1(C)S[C@@H]2[C@H](NC(=O)[C@H](N)c3ccc(O)cc3)C(=O)N2[C@H]1C(=O)O` [Amoxycillin]: the values for the MIC in the assay with S Pneumoniae N1387 (setting [1]), in the assay on S Pneumoniae 14319 (setting [1]) and with S Pneumoniae 410101 (setting [1]) were 2 µg/mL (≈ 5.47 µM), 4 µg/mL (≈ 10.9 µM) and 4 µg/mL (≈ 10.9 µM), respectively.
